{"source": "patent US11738031B2", "about": "“Compositions and methods for preventing or treating muscle conditions” (The Board of Trustees of the Leland Stanford Junior …, priority 2017, dated 2023)", "key": {"MuSCs": {"system": "MuSCs", "assay": "EdU incorporation proliferation assay", "type": "cell-based, mouse", "details": "PGE2 10 ng/ml for 24 h, EdU 1 hr", "protocol": "Proliferation assays: To assay proliferation, we used three different assays (hemocytometer, VisionBlue, and EdU). For each, we seeded MuSCs on flat hydrogels (hemocytometer and VisionBlue) or collagen-coated plates (EdU assay) at a density of 500 cells per cm^2 surface area. For hemocytometer cell number count, we collected cells at indicated timepoints by incubation with 0.5% trypsin in PBS for 5 min at 37° C. and quantified them using a hemocytometer at least 3 times. Additionally, we used the VisionBlue Quick Cell Viability Fluorometric Assay Kit (BioVision, catalog #K303) as a readout for cell growth in culture. Briefly, we incubated MuSCs with 10% VisionBlue in culture medium for 3 h, and measured fluorescence intensity on a fluorescence plate reader (Infinite M1000 PRO, Tecan) at Ex=530-570 nm, Em=590-620 nm. […] We quantified EdU positive cells using the MetaMorph Image Analysis software (Molecular Devices). Data analyses were blinded, where researchers performing cell scoring were unaware of the treatment condition given to sample groups analyzed.\nTo assay proliferation, we used three different assays (hemocytometer, VisionBlue, and EdU). […] For hemocytometer cell number count, we collected cells at indicated timepoints by incubation with 0.5% trypsin in PBS for 5 min at 37° C. and quantified them using a hemocytometer at least 3 times. […]"}, "TA muscles": {"system": "TA muscles", "assay": "In vivo muscle force after downhill treadmill exercise, aged mice, TA", "set-up": "species or system mouse", "details": "aged (18-22 mo) mice, 10 μg PGE2 after each run in week 1, force at week 5", "protocol": "FIGS. 5Q and 5R show twitch force and tetanic force data, respectively, from a separate experiment in which mice were treated with PGE2 or vehicle only. Importantly, we observed an increase in isometric force in aged (18-22 mo) mice injected with PGE2 and subjected to downhill treadmill exercise. Briefly, aged mice ran daily (at 20 degrees downhill and 14 meter/min maximum speed for 10 min) for 5 days and rested on days 6 and 7. This eccentric exercise regime leads to MuSC expansion due to a cycle of muscle degeneration and regeneration. […] During week 2, mice were subjected to 5 days treadmill run only."}, "[1]": {"details": "PGE2 20 μg (or 4 mg/kg); cited from earlier work"}, "aged MuSCs": {"system": "aged MuSCs", "assay": "Clonal aged MuSC proliferation and fate by time-lapse microscopy (48 h)", "type": "cell-based, mouse", "excerpt": "Clonal muscle stem cell proliferation and fate analyses: We assayed clonal muscle stem cell proliferation by time-lapse microscopy as previously described^56. Briefly, we treated isolated aged MuSCs with PGE2 (Cayman Chemical) or vehicle (DMSO) for 24 hr. After five days of growth on hydrogels, cells were reseeded at a density of 500 cells per cm^2 surface area in hydrogel microwells with 600 μm diameter. For time-lapse microscopy we monitored cell proliferation for those wells with single cells beginning 12 hr (day 0) to two days after seeding and recorded images every 3 min at 10× magnification using a PALM/AxioObserver Z1 system (Carl Zeiss MicroImaging) with a custom environmental control chamber and motorized stage. We changed medium every other day in between the acquisition time intervals. We analyzed time-lapse image sequences using the Baxter Algorithms for Cell Tracking and Lineage Reconstruction to identify and track single cells and generate lineage trees^5,6,8-10.\nViable and dead cells were distinguished in time-lapse sequences based on phase-contrast boundary and motility maintenance or loss, respectively. […] The values were estimated using the equations described in^6, and found in Table 1. We denote the proliferation rates in the two intervals p24 and p48 and the corresponding death rates d24 and d48. […] The modeled cell counts in the two time intervals are given by […]"}, "[2]": {"details": "aged MuSC clones, acute PGE2 treatment, time-lapse 48 h"}, "[3]": {"details": "first 24 hour interval, aged MuSCs"}, "[4]": {"details": "second 24 hour interval, aged MuSCs"}, "[5]": {"details": "transient 1 day PGE2, 48 h tracking"}}, "note": "“Also recorded” adds a separate entry of the source.", "data": [{"smiles": "CCCCC[C@H](O)/C=C/[C@H]1[C@H](O)CC(=O)[C@@H]1C/C=C\\CCCC(=O)O", "note": "[PGE2, prostaglandin E2]", "values": [{"measurement": "cell division assayed by EdU incorporation", "setting": "MuSCs", "result": "increased cell division; also recorded: increase in cell division"}, {"measurement": "force (twitch and tetanic) of TA muscles", "setting": "TA muscles", "result": "significant increase in force"}, {"measurement": "tolerability of proposed maximum dose in rodents", "setting": "[1]", "result": "without deleterious effects"}, {"measurement": "percent increase in dead cell count", "setting": "aged MuSCs; [2]", "result": 0.1, "unit": "%"}, {"measurement": "percent increase in live cell count", "setting": "aged MuSCs; [2]", "result": 5.4, "unit": "%"}, {"measurement": "d24, estimated death rate", "setting": "aged MuSCs; [3]", "result": 0.0067, "unit": "per hours"}, {"measurement": "p24, estimated proliferation rate", "setting": "aged MuSCs; [3]", "result": 0.0475, "unit": "per hours"}, {"measurement": "d48, estimated death rate", "setting": "aged MuSCs; [4]", "result": 0.0012, "unit": "per hours"}, {"measurement": "p48, estimated proliferation rate", "setting": "aged MuSCs; [4]", "result": 0.0538, "unit": "per hours"}, {"measurement": "cell death in aged MuSC clones", "setting": "aged MuSCs; [5]", "result": "profound reduction in cell death"}, {"measurement": "proliferation of aged MuSC clones", "setting": "aged MuSCs; [5]", "result": "marked increase in proliferation"}, {"measurement": "cumulative cell numbers of aged MuSC clones", "setting": "aged MuSCs; transient 1 day PGE2, 48 h tracking, spanning 6 generations", "result": "remarkable increase in cumulative cell numbers"}]}]}
